Results taken from PMC6271079, “Amino Acid Derivatives of Ligustrazine-Oleanolic Acid as New Cytotoxic Agents” (Molecules, 2014).

Legend:
Hela = assay: MTT cytotoxicity assay, Hela; type: cell-based, human; conditions: Homo sapiens, 72 h, cervical cancer cells
Protocol: (§1) The cytotoxicity of these compounds was tested on five cells lines by the standard MTT assay. The human cancer cells lines (HepG2, HT-29, Hela, BGC-823) and MDCK cells were provided by the Chinese Academy of Medical Sciences Peking Union Medical College. The tumor cells were cultured in RPMI 1640 medium supplemented with 10% (v/v) fetal bovine serum and 1% (v/v) penicillin-streptomycin (Thermo Technologies, New York, NY, USA) at 37 °C in a humidified atmosphere with 5% CO2. The growing tumor cells at a density 3 × 10^3 cells/mL were exposed to various concentrations of the tested drugs and incubated in a 96-well microtiter plate for 72 h (37 °C, 5% CO2). After MTT solution (20 μL, 5 mg/mL) was added to each well, the plate was incubated for a further 4 h. Then the media was removed. Formazan crystals were dissolved with DMSO (150 μL). After mixing well, the absorbance was quantified at 490 nm with a BIORAD 550 spectrophotometer (Bio-rad Life Science Development Ltd., Beijing, China). Wells containing no drugs were used to be blanks. The IC50 values were defined as the concentration of compounds that produced a 50% reduction of surviving cells and calculated using the Logit-method. Tumor cell growth inhibitory rate was calculated in the following Equation (1): % inhibition = (1 − Sample group OD/Control group OD) × 100%(1)

MDCK cells = assay: MTT toxicity (nephrotoxicity) evaluation, MDCK; type: cell-based; conditions: Canis lupus familiaris, MDCK, 72 h, Madin-Darby canine kidney cells
Protocol: as §1

HT-29 = assay: MTT cytotoxicity assay, HT-29; type: cell-based; conditions: HT-29, 72 h, human colorectal cancer cells
Protocol: as §1

BGC-823 = assay: MTT cytotoxicity assay, BGC-823; type: cell-based; conditions: BGC-823, 72 h, human gastric cancer cells
Protocol: as §1

HepG2 = assay: MTT cytotoxicity assay, HepG2; type: cell-based; conditions: HepG2, 72 h, human hepatoma cells
Protocol: as §1

[1] = test system: HepG2, HT-29, Hela and BGC-823; assay: MTT cytotoxicity, summary statements over the cell lines; type: cell-based, human; conditions: Homo sapiens, HepG2, HT-29, Hela and BGC-823, MTT; read-out: IC50, cytotoxicity on all four cancer cell lines
Protocol: as §1

| SMILES | melting point [°C] | IC50 (Hela) [µM] | IC50 (MDCK cells) [µM] | IC50 (HT-29) [µM] | IC50 (BGC-823) [µM] | IC50 (HepG2) [µM] | IC50 [1] [µM] |
| --- | --- | --- | --- | --- | --- | --- | --- |
| CNCC(=O)O[C@H]1CC[C@@]2(C)C(CC[C@]3(C)C2CC=C2C4CC(C)(C)CC[C@]4(C(=O)OCc4nc(C)c(C)nc4C)CC[C@]23C)C1(C)C (stereo partly drawn) [Compound 6i, 3β-L-Sarcosine ester olean-12-en-28-oic acid-3,5,6-trimethylpyrazin-2-methyl ester] | 81.9 to 82.5 | 12.6 | 15.8 | 16.9 | 16 | 10.2 | – |
| Cc1nc(C)c(COC(=O)[C@]23CCC(C)(C)CC2C2=CCC4[C@@]5(C)CC[C@H](OC(=O)[C@@H]6CCC(=O)N6)C(C)(C)C5CC[C@@]4(C)[C@]2(C)CC3)nc1C (stereo partly drawn) [Compound 6j, 3β-L-Pyroglutamate ester olean-12-en-28-oic acid-3,5,6-trimethylpyrazin-2-methyl ester] | 124.6 to 125.8 | – | – | – | – | – | – |
| Cc1nc(C)c(COC(=O)[C@]23CCC(C)(C)CC2C2=CCC4[C@@]5(C)CC[C@H](OC(=O)[C@@H](N)Cc6ccccc6)C(C)(C)C5CC[C@@]4(C)[C@]2(C)CC3)nc1C (stereo partly drawn) [Compound 6h, 3β-L-Phenylalanine ester olean-12-en-28-oic acid-3,5,6-trimethylpyrazin-2-methyl ester] | 82.4 to 83.8 | > 25 | 8.12 | 9.5 | > 25 | 8.22 | – |
| Cc1nc(C)c(COC(=O)[C@]23CCC(C)(C)CC2C2=CCC4[C@@]5(C)CC[C@H](OC(=O)[C@@H](N)Cc6c[nH]c7ccccc67)C(C)(C)C5CC[C@@]4(C)[C@]2(C)CC3)nc1C (stereo partly drawn) [Compound 6k, 3β-L-Tryptophan ester olean-12-en-28-oic acid-3,5,6-trimethylpyrazin-2-methyl ester] | 206.9 to 207.7 | > 25 | 10.8 | > 25 | 10 | 11.4 | – |

Continued, in another order:

| melting point [°C] | SMILES | IC50 (Hela) [µM] | IC50 (MDCK cells) [µM] | IC50 (HT-29) [µM] | IC50 (BGC-823) [µM] | IC50 (HepG2) [µM] | IC50 [1] [µM] |
| --- | --- | --- | --- | --- | --- | --- | --- |
| 107.1 to 108.5 | Cc1nc(C)c(COC(=O)[C@]23CCC(C)(C)CC2C2=CCC4[C@@]5(C)CC[C@H](OC(=O)[C@@H](N)CO)C(C)(C)C5CC[C@@]4(C)[C@]2(C)CC3)nc1C (stereo partly drawn) [Compound 6l, 3β-L-Serine ester olean-12-en-28-oic acid-3,5,6-trimethylpyrazin-2-methyl ester] | 5.22 | 3.12 | 4.83 | 4.9 | 4.78 | < 8 |
| 89.8 to 90.7 | CC[C@H](C)[C@H](N)C(=O)O[C@H]1CC[C@@]2(C)C(CC[C@]3(C)C2CC=C2C4CC(C)(C)CC[C@]4(C(=O)OCc4nc(C)c(C)nc4C)CC[C@]23C)C1(C)C (stereo partly drawn) [Compound 6e, 3β-L-Isoleucine ester olean-12-en-28-oic acid-3,5,6-trimethylpyrazin-2-methyl ester] | > 25 | > 25 | 9.83 | > 25 | 5.97 | – |
| 89.5 to 91 | Cc1nc(C)c(COC(=O)[C@]23CCC(C)(C)CC2C2=CCC4[C@@]5(C)CC[C@H](OC(=O)[C@@H](N)C(C)C)C(C)(C)C5CC[C@@]4(C)[C@]2(C)CC3)nc1C (stereo partly drawn) [Compound 6f, 3β-L-Valine ester olean-12-en-28-oic acid-3,5,6-trimethylpyrazin-2-methyl ester] | > 25 | 9.79 | 5.96 | 9.52 | 4.26 | – |
| 89.6 to 91.6 | Cc1nc(C)c(COC(=O)[C@]23CCC(C)(C)CC2C2=CCC4[C@@]5(C)CC[C@H](OC(=O)[C@@H](N)CC(C)C)C(C)(C)C5CC[C@@]4(C)[C@]2(C)CC3)nc1C (stereo partly drawn) [Compound 6d, 3β-L-Leucine ester olean-12-en-28-oic acid-3,5,6-trimethylpyrazin-2-methyl ester] | > 25 | > 25 | > 25 | > 25 | > 25 | – |
